In patent EP0046337A2, “Triazole compounds, a process for preparing them, their use as plant and pharmaceutical fungicides and as plant growth regulators and compositions containing them” (IMPERIAL CHEMICAL INDUSTRIES PLC, priority 1980, dated 1982):

Tests used:
Type in all cases: in vivo
[1] = test system: PUCCINIA RECONDITA (WHEAT); test: Foliar fungal disease test on plants: Puccinia recondita on wheat; settings: 100 ppm active ingredient spray and root drench approximately 40 ppm a.i./dry soil, one or two days before inoculation, assessed four to fourteen days after inoculation
Description: (§1) The compounds were tested against a variety of foliar fungal diseases of plants. The technique employed was as follows. The plants were grown in John Innes Potting Compost (No 1 or 2) in 4 cm diameter minipots. A layer of fine sand was placed at the bottom of the pots containing the dicotyledonous plants to facilitate uptake of test compound by the roots. The test compounds were formulated either by bead milling with aqueous Dispersol T or as a solution in acetone or acetone/ethanol which was diluted to the required concentration immediately before use. For the foliage diseases, suspensions (100 ppm active ingredient) were sprayed […]. Exceptions to this were the tests on Botrytis cinerea and Venturia inaequalis. The sprays were applied to maximum retention and the root drenches to a final concentration equivalent to approximately 40 ppm a.i./dry soil. Tween 20, to give a final concentration of 0.05%, was added when the sprays were applied to cereals. For most of the tests the compound was applied to the soil (roots) and to the foliage (by spraying) one or two days before the plant was inoculated with the diseases. An exception was the test on Erysiphe graminis in which the plants were inoculated 24 hours before treatment. After inoculation, the plants were put into an appropriate environment to allow infection to take place and then incubated until the disease was ready for assessment. The period between inoculation and assessment varied from four to fourteen days according to the disease and environment. The disease control was recorded by the following grading:- • 4 = no disease • 3 = trace - 5% of disease on untreated plants • 2 = 6-25% of disease on untreated plants • 1 = 26-59% of disease on untreated plants • 0 = 60-100% of disease on untreated plants

[2] = test system: ERYSIPHE GRAMINIS (BARLEY); test: Foliar fungal disease test on plants: Erysiphe graminis on barley; settings: 100 ppm active ingredient spray and root drench approximately 40 ppm a.i./dry soil, plants inoculated 24 hours before treatment
Description: as §1

[3] = test system: BOTRYTIS CINEREA (GRAPE); test: Foliar fungal disease test on plants: Botrytis cinerea on grape; settings: 100 ppm active ingredient, named as an exception to the usual way of application, treatment one or two days before inoculation
Description: as §1, with “For most of the tests the compound was applied to the soil (roots) and to the foliage (by spraying) one or two days before the plant was inoculated with the diseases. An exception was the test on Erysiphe graminis in which the plants were inoculated 24 hours before treatment.” left out, “The period between inoculation and assessment varied from four to fourteen days according to the disease and environment.” left out

[4] = test system: CERCOSPORA ARACHIDICOLA (PEANUT); test: Foliar fungal disease test on plants: Cercospora arachidicola on peanut; settings: 100 ppm active ingredient spray and root drench approximately 40 ppm a.i./dry soil, one or two days before inoculation
Description: as §1

[5] = test system: VENTURIA INEQUALIS (APPLE); test: Foliar fungal disease test on plants: Venturia inaequalis on apple; settings: 100 ppm active ingredient, named as an exception to the usual way of application, treatment one or two days before inoculation
Description: as §1

Q: For OC(Cn1cncn1)(c1ccccc1)c1cccs1 (centres unmarked) [Compound 1A, 1-(1,2,4-Triazol-1-yl)-2-phenyl-2-(2-thienyl)ethan-2-ol], which “disease control grading, PUCCINIA RECONDITA (WHEAT)” value [1] is on record?
A: 3 (3 = trace - 5% of disease on untreated plants)

Q: What about the “disease control grading, ERYSIPHE GRAMINIS (BARLEY)” value [2] of the same compound?
A: 4 (4 = no disease)

Q: And the “disease control grading, BOTRYTIS CINEREA (GRAPE)” value [3]?
A: 0 (0 = 60-100% of disease on untreated plants)

Q: What about the “disease control grading, CERCOSPORA ARACHIDICOLA (PEANUT)” value [4] of the same compound?
A: 0 (0 = 60-100% of disease on untreated plants)

Q: And the “disease control grading, VENTURIA INEQUALIS (APPLE)” value [5]?
A: 0 (0 = 60-100% of disease on untreated plants)

Q: For OC(Cn1cncn1)(c1ccc(Cl)s1)c1ccc(Cl)cc1Cl (stereo not drawn) [Compound 11A, 1-(1,2,4-Triazol-l-yl)-2-(2,4-dichloroplienyl)-2-(5-chlorothien-2-yl) ethan-2-ol], which “disease control grading, PUCCINIA RECONDITA (WHEAT)” value [1] is on record?
A: 4 (4 = no disease)

Q: What about the “disease control grading, ERYSIPHE GRAMINIS (BARLEY)” value [2] of the same compound?
A: 4 (4 = no disease)

Q: And the “disease control grading, CERCOSPORA ARACHIDICOLA (PEANUT)” value [4]?
A: 3 (3 = trace - 5% of disease on untreated plants)

Q: What about the “disease control grading, VENTURIA INEQUALIS (APPLE)” value [5] of the same compound?
A: 4 (4 = no disease)

Q: What does the source list for OC(Cn1cnnc1)(c1ccc(Cl)s1)c1ccc(Cl)cc1Cl (centres unmarked) [Compound 11B, 1-(1,2,4-Triazol-4-yl)-2-(2,4-dichlorophenyl)-2-(5-chloro-thlen-2-yl) ethan-2-ol]?
A: disease control grading, PUCCINIA RECONDITA (WHEAT) [1]: 4 (4 = no disease); disease control grading, ERYSIPHE GRAMINIS (BARLEY) [2]: 4 (4 = no disease); disease control grading, BOTRYTIS CINEREA (GRAPE) [3]: 0 (0 = 60-100% of disease on untreated plants); disease control grading, CERCOSPORA ARACHIDICOLA (PEANUT) [4]: 1 (1 = 26-59% of disease on untreated plants); disease control grading, VENTURIA INEQUALIS (APPLE) [5]: 1 (1 = 26-59% of disease on untreated plants)
